Source: PubChem BioAssay AID179 (DTP/NCI, 2004)
pEC50, pIC50: −log10 of the molar value. Several values for one entry are separate records, joined by “and”; a condition that tells them apart may be missing. Equal values may be shown once. Activity calls are given as the source filed them.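 Rule for the calls: active = compounds giving half or more protection of infected cells from virus-caused growth loss, again on retest; inactive = the rest.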 Where a SMILES comes first, the peptide text is derived from it. Bridges are numbered along the chain shown (N, C = ends). Roman numbers before positions name the chains, in order.

Tested on: CEM cells HIV-1 protection, formazan growth assay
Experiment: NCI AIDS Antiviral Assay
Conditions: for pIC50: measured here: growth of uninfected CEM cells
Summary of the method: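 Steps: treat uninfected and HIV-1-infected human CEM cells at five drug levels; quantify growth by soluble formazan; retest any compound reaching 50% protection; classify actives from the retest.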

| Compound | pEC50 | pIC50 | outcome |
| --- | --- | --- | --- |
| O=C1c2ccccc2C2C1N2C(=O)C(F)(F)F (centres undefined) | < 3.83 | 4.61 | – |
| O=C(c1ccc(Cl)cc1Cl)N(C(=O)N1CCCCC1)c1ccccc1 | < 3.70 | < 3.70 | – |
| O=Nc1c(Br)cc(Br)c2ccc3c(Br)cc(Br)c(N=O)c3c12 | < 4.30 | < 4.30 | – |
| Nc1nc2c(=O)c3ccccc3sc2s1 | – | – | inactive |
| CC(C)(C)[Si](C)(C)OCC1OC(n2cnc3c(=O)[nH]c(NC(=O)c4ccccc4)nc32)C(O[Si](C)(C)C(C)(C)C)C1O[Si](C)(C)C(C)(C)C (centres undefined) | < 3.70 | 5.04 | – |
| O=S(=O)(c1ccccc1)n1c(C(O)c2ccccc2)cc2ccccc21 (centres undefined) | < 3.70 | 4.75 | – |
| Cc1ccc(S(=O)(=O)N2CCCN(S(=O)(=O)c3ccc(C)cc3)CCN(S(=O)(=O)c3ccc(C)cc3)CCCSCC2)cc1 | < 5.26 | < 5.26 | – |
| CC(CCOc1c2ccoc2cc2oc(=O)ccc12)C1=CC(=O)C(C)(C)O1 (centres undefined) | < 3.70 | < 3.70 | – |
| O=C(CCCN1CCC(n2c(=O)[nH]c3ccccc32)CC1)c1ccc(F)cc1 | < 3.70 | 4.05 | – |
| O=C1/C(=C/c2ccc(F)cc2)CCc2ccccc21 | < 4.97 | < 4.97 | – |
| CC(=O)OCC1OC(n2c3c(c(-c4ccco4)c(C#N)c2=S)CCC3)C(OC(C)=O)C(OC(C)=O)C1OC(C)=O (centres undefined) | < 3.70 | 5.01 | – |
| Nc1ccccc1SC(/C=C/NNC1=NC(c2ccccc2)C(c2ccccc2)=NN1)c1ccccc1 (centres undefined) | < 4.00 | 5.37 | – |
| CSC1=Nc2ccccc2N=C(c2ccc(Cl)cc2)C1 | < 4.90 | < 4.90 | – |
| CS(=O)(=O)N1CC(CCl)c2ccc(O)cc21 (centres undefined) | < 3.70 | 5.73 | – |
| COc1cc2c(cc1OC)OC(c1c(OC)ccc(OC)c1O)CC2 (centres undefined) | < 4.00 | < 4.00 | – |
| COc1cc(C(=O)c2cocc2C(=O)c2ccc3c(c2)OCO3)cc(OC)c1OC | – | – | inactive |
| C/C=C/CC(S(=O)(=O)c1ccccc1)S(=O)(=O)c1ccccc1 | < 4.00 | < 4.00 | – |
| O=C(Oc1ccc(Cl)cc1[N+](=O)[O-])c1ccccc1 | – | – | inactive |
| O=C(CO)CC(=O)C(=O)Nc1nc([N+](=O)[O-])cs1 | < 3.88 | < 3.88 | – |
| CC(C)(C)OC(=O)NCCCCC(N)NC(=O)c1ccccc1 (centres undefined) | < 3.70 | < 3.70 | – |
| C=C(CCC(Cl)[C@@H]1COC(/C=C/C)O1)[Si](C)(C)C (some centres undefined) | < 3.91 | < 3.91 | – |

| Compound | pEC50 | pIC50 | outcome |
| --- | --- | --- | --- |
| COc1ccc(/C=C2/C(=O)N=C(NC(C)=O)N2C)cc1OC | < 3.70 | < 3.70 | – |
| O=C1/C(=C/c2cccc(Br)c2)CSC/C1=C\c1cccc(Br)c1 | < 3.70 | 5.54 | – |
| O=C(O)[C@H](CSSC[C@@H](C(=O)O)N1C(=O)c2ccccc2C1=O)N1C(=O)c2ccccc2C1=O | < 3.70 | < 3.70 | – |
| COC(=O)c1cc(C(=CCC23CC4CC(CC(C4)C2)C3)c2cc(Cl)c(OC)c(C(=O)OC)c2)cc(Cl)c1OC | < 4.76 | < 4.76 | – |
| CCOC(=O)NN1C(=O)c2cccc3c([N+](=O)[O-])ccc(c23)C1=O | < 5.70 | 6.65 | – |
| COC(=O)C(CCC1(C)OCCO1)=[N+]=[N-] | < 3.60 | < 3.60 | – |
| CCn1c(SCC(=O)N/N=C/c2ccccc2)nc2ccccc2c1=O | < 3.70 | 4.63 | – |
| C#CCOC(=O)C=[N+]=[N-] | < 3.70 | < 3.70 | – |
| C[n+]1c(-c2ccc(/C=C/C=N\NC(=O)c3ccc(C(=O)N/N=C\C=C\c4ccc(-c5cn6ccccc6[n+]5C)cc4)cc3)cc2)cn2ccccc21 | < 5.01 | < 5.01 | – |
| CC1(C)COC(c2cccc(C3=NC(C)(C)CO3)n2)=N1 | < 4.58 | < 4.58 | – |
| CCC[CH2][Sn]1([CH2]CCC)[N](S(=O)(=O)c2ccc(C)cc2)c2ccccc2[N]1S(=O)(=O)c1ccc(C)cc1 | < 5.70 | 6.51 | – |
| O=c1[nH]c(=O)n(C2CCC(COP(=O)(O)O)O2)cc1Cc1ccccc1 (centres undefined) | < 3.33 | < 3.33 | – |
| COc1ccc(OC(C(=O)O)C(C)C)c2c1CCCC2=O (centres undefined) | – | – | inactive |
| CCOC(=O)NNC(=O)NCc1ccccc1CNC(=O)NNC(=O)OCC | < 3.70 | < 3.70 | – |
| CCC[CH2][Sn]([CH2]CCC)([O]C(=O)/C=C/c1ccccc1F)[O]C(=O)/C=C/c1ccccc1F | < 5.03 | < 5.03 | – |
| COc1ccccc1C(=O)c1c(NCc2ccccc2)c(=O)c1=O | < 3.70 | 4.03 | – |
| Cc1ccc2c(c1)-c1c3c(nn1C)-c1ccccc1SC3O2 (centres undefined) | < 4.63 | < 4.63 | – |
| CCCCCCCCCCCCCCCCOC1OC(COC(C)=O)C(OC(C)=O)C(OC(C)=O)C1O (centres undefined) | < 4.87 | < 4.87 | – |
| COC12C=CC(CC1)C(C)(C)C2=O (centres undefined) | < 3.70 | < 3.70 | – |
| C[n+]1c2ccccc2c(NC(CCC(N)=O)C(=O)O)c2ccccc21 (centres undefined) | – | – | inactive |
| NC(=O)C(=CN1C(=O)CC(=O)NC1=S)C(N)=O | < 3.70 | < 3.70 | – |

| Compound | pEC50 | pIC50 | outcome |
| --- | --- | --- | --- |
| Cc1ccc(NC(Nc2ccc(C)cc2C)=C(C(Cl)=C(Cl)Cl)[N+](=O)[O-])c(C)c1 | < 3.70 | 5.10 | – |
| COc1cc2c(cc1OC)C(=O)C1(C2)[C@H](c2ccccc2)C2C(=O)c3cc(OC)c(OC)cc3C2[C@H]1c1ccccc1 (some centres undefined) | < 3.70 | < 3.70 | – |
| COc1nc(N)c(N=O)c(OCc2ccccc2)n1 | < 3.70 | 5.40 | – |
| COC(=O)c1c[nH]cc1CCc1c[nH]cc1C(=O)OC | – | – | inactive |
| CN(C)Cc1cc(C(=O)/C=C/c2ccccc2Cl)cc(CN(C)C)c1O | < 3.70 | 5.14 | – |
| CC(=O)/C(=C/c1ccccc1F)C(=O)c1ccccc1 | < 4.57 | < 4.57 | – |
| CC1(C)CN=C(Nc2ccc(F)c(F)c2)S1 | < 3.70 | < 3.70 | – |
| CC1=NNC(=O)[C@H]2[C@H]1CCC1[C@@H]2CC[C@]2(C)[C@@H](O)CC[C@@H]12 (some centres undefined) | < 3.70 | < 3.70 | – |
| CCC(=O)OC1CCC2C3CCC(=O)OC3C(C)(CCC(=O)O)CC12C (centres undefined) | < 3.70 | 5.72 | – |
| COc1ccccc1NC(=O)O/N=C(/Cl)C(C)C | < 3.70 | 5.13 | – |
| O=C1NC(=O)C2C1N(Cc1ccccc1)C(=O)N2Cc1ccccc1 (centres undefined) | < 3.97 | < 3.97 | – |
| CCOC(=O)c1cc(OC(=O)CC)c2c(OC)ccc(OC)c2c1 | – | – | inactive |
| Cc1c(O)c2ccccc2c2c1sc(NCCO)[n+]2C | < 4.10 | 4.39 | – |
| O=C(/C(=N/Nc1ccccc1)c1ccc([N+](=O)[O-])cc1)c1ccc([N+](=O)[O-])cc1 | – | – | inactive |
| O=C(c1ccco1)n1c2ccc(Br)cc2c2nc3ccccc3nc21 | < 4.30 | 4.65 | – |
| CC(SC(C)C(=O)N/N=C/c1ccc(B(O)O)cc1)C(=O)N/N=C\c1ccc(B(O)O)cc1 (centres undefined) | < 3.70 | < 3.70 | – |
| O=c1cc(NNc2ccc3ccccc3c2)[nH]c(=S)[nH]1 | < 3.70 | 4.41 | – |
| CC1(Br)C(=O)C(O)=C(Br)C1=O (centres undefined) | < 3.70 | 4.71 | – |
| COc1cccc(-c2nc(N)c(C#N)c3c2CCS(=O)(=O)c2ccc(C)cc2-3)c1 | < 3.70 | 5.39 | – |
| O=C(CC1(O)C(=O)Nc2ccccc21)c1ccc(Cl)c(Cl)c1 (centres undefined) | – | – | inactive |
| CCCCNS(=O)(=O)c1ccc(-c2ccc3c(c2)-c2ccc(S(=O)(=O)NCCCC)cc2S3(=O)=O)cc1 | < 4.89 | < 4.89 | – |

| Compound | pEC50 | pIC50 | outcome |
| --- | --- | --- | --- |
| O=[N+]([O-])c1ccc(-c2cn3nc(-c4ccccc4)c(-c4ccccc4)nc3n2)cc1 | < 4.88 | < 4.88 | – |
| CN(C)c1ccc(/C=c2\sc3nnc(-c4ccco4)n3c2=O)cc1 | < 4.95 | < 4.95 | – |
| O=[N+]([O-])c1ccc([As](=O)(O)O)cc1 | < 3.70 | < 3.70 | – |
| Cc1cn(C2CC(OC(c3ccccc3)(c3ccccc3)c3ccccc3)C(COC(c3ccccc3)(c3ccccc3)c3ccccc3)O2)c(=O)[nH]c1=O (centres undefined) | < 3.70 | < 3.70 | – |
| NC(CSSCC(N)C(=O)NC(Cc1ccccc1)C(=O)O)C(=O)NC(Cc1ccccc1)C(=O)O (stereo not drawn) (I: H-Cys-Phe-OH / II: H-Cys-Phe-OH; disulfide I:1-II:1; configuration not given here) | < 3.70 | < 3.70 | – |
| c1cnn(P2(n3cccn3)=NP(n3cccn3)(n3cccn3)=NP(n3cccn3)(n3cccn3)=NP(n3cccn3)(n3cccn3)=NP(n3cccn3)(n3cccn3)=NP(n3cccn3)(n3cccn3)=N2)c1 | < 3.70 | < 3.70 | – |
| CCCOc1csc([C@H]2CCC3[C@@H]4CC=C5C[C@@H](OC(=O)CCC(=O)O)CC[C@]5(C)C4CC[C@@]32C)n1 (some centres undefined) | < 4.32 | 4.74 | – |
| CSc1c2c(C)n[nH]c2nn1-c1ccccc1 | < 3.70 | 4.91 | – |
| Cc1ccnc2c1C(=O)C(=O)C=C2N1CCCC1 | – | – | inactive |
| Cc1cccc(C)c1NC(=O)C(=O)CC(=O)c1cccc([N+](=O)[O-])c1 | < 3.28 | < 3.28 | – |
| COc1ccc(-c2c(C#N)c(N)n(C3OCC(OC(C)=O)C(OC(C)=O)C3OC(C)=O)c(=S)c2C#N)cc1 (centres undefined) | < 3.70 | 4.68 and 4.53 | – |
| CCCCCCCCCCCOC(=S)NC(C)C | – | – | inactive |
| COC(=O)c1csc(-c2nc(CCNC(=O)OC(C)(C)C)sc2Br)n1 | < 4.10 | 4.50 | – |
| CC(C)=CCc1c(-c2ccc(OC3OC(CO)C(O)C(O)C3O)cc2O)oc2c3c(cc(O)c2c1=O)OC(C)(C)C=C3 (centres undefined) | < 4.94 | < 4.94 | – |
| Cc1c(C)c2ccc(OCC(O)COC(C)C)c(C)c2oc1=O (centres undefined) | < 3.70 | 4.49 | – |
| CCOC(=O)c1nnsc1N/N=C\c1ccc([N+](=O)[O-])cc1 | < 3.70 | < 3.70 | – |
| CCN(Cc1cccc(S(=O)(=O)O)c1)c1ccc(C(=C2C=CC(=[N+](CC)Cc3cccc(S(=O)(=O)O)c3)C=C2)c2ccc(S(=O)(=O)O)cc2)cc1 | < 3.95 | 4.10 | – |
| C[N+]1(C)C[C@@H](O)C[C@@H]1C(=O)[O-] | < 2.80 | < 2.80 | – |
| CC1(C)CC(=O)C2=C(C1)C(c1ccccc1Cl)C1C(=O)CC(C)(C)CC1(O)O2 (centres undefined) | < 3.70 | 4.54 | – |
| COc1ccc2c(c1)O[C@@H]1c3ccc(OC)cc3OC[C@H]21 | – | – | inactive |
